Data reported in ChEMBL document CHEMBL5634096, “Design, synthesis and bioevaluation of PI3Kα-selective inhibitors as potential colorectal cancer drugs” (Eur J Med Chem, 2023).
Calls of active or inactive are those of the source. The calls are words filed in the database; no cut-off is given here.

Experiments:
[1] = test system: HCT-116; test: Inhibition of cell migration human HCT-116 cells incubated for 48 hrs by crystal violet staining based transwell assay; format: functional; settings: dose 3-12 µM
[2] = Half life in Sprague-Dawley rat at 5 mg/kg, iv measured upto 24 hrs by LC-MS analysis; format: ADME, organism-based; settings: in vivo
[3] = test system: HCT-116; test: Induction of cell cycle arrest at G1/G0 phase in human HCT-116 cells assessed as decrease in cyclinE1 expression incubated for 48 hrs by Western blotting analysis; format: functional, cell-based; settings: dose 3-12 µM
[4] = molecular target: Receptor-type tyrosine-protein kinase FLT3 (Homo sapiens) (UniProt P36888); test: Inhibition of human FLT3 at 1 uM
[5] = test system: K562; test: Antiproliferative activity against human K562 cells assessed as reduction in cell viability at 10 uM incubated for 24 to 48 hrs by CCK-8 assay; format: functional, cell-based; settings: time lower […], time upper 48.0 hrs
[6] = Metabolic stability in Sprague-Dawley rat liver microsomes assessed as half life at 5 ug/ml incubated for 1 hr in presence of NADPH by LC-MS/MS analysis; format: ADME, Microsome; settings: dose 5 µg/ml
[7] = AUC (0 to infinity) in Sprague-Dawley rat at 5 mg/kg, iv measured upto 24 hrs by LC-MS analysis; format: ADME, organism-based; settings: in vivo
[8] = molecular target: Cytochrome P450 3A4 (Homo sapiens, UniProt P08684); test: Inhibition of CYP3A4 in human liver microsomes using midazolam as substrate pre-incubated for 30 mins followed by substrate addition and measured after 15 mins in presence of NADPH by LC/MS analysis; format: ADME, Microsome
[9] = test system: HCT-116; test: Inhibition of cell invasion human HCT-116 cells incubated for 48 hrs by crystal violet staining based transwell assay; format: functional; settings: dose 3-12 µM
[10] = test system: MDA-MB-231; test: Antiproliferative activity against human MDA-MB-231 cells assessed as reduction in cell viability incubated for 24 to 48 hrs by CCK-8 assay; format: functional, cell-based
[11] = Metabolic stability in Sprague-Dawley rat liver microsomes assessed as compound remaining at 5 ug/ml incubated for 1 hr in presence of NADPH by LC-MS/MS analysis; format: ADME, Microsome; settings: at 5 µg/mL, read-out: Stability
[12] = test system: HCT-116; test: Antiproliferative activity against human HCT-116 cells assessed as reduction in cell viability incubated for 48 hrs by CCK-8 assay; format: functional, cell-based; settings: dose 20-80 µM
[13] = MRT (0 to infinity) in Sprague-Dawley rat at 5 mg/kg, iv measured upto 24 hrs by LC-MS analysis; format: ADME, organism-based; settings: in vivo
[14] = test system: HCT-116; test: Induction of apoptosis in human HCT-116 cells assessed as increased total apoptotic cells at 12 uM incubated for 48 hrs by Annexin V-FITC and propidium iodide staining based flow cytometry analysis (reference value: 4.22 %); format: functional
[15] = molecular target: Cytochrome P450 1A2 (Homo sapiens, UniProt P05177); test: Inhibition of CYP1A2 in human liver microsomes using phenacetin as substrate pre-incubated for 30 mins followed by substrate addition and measured after 15 mins in presence of NADPH by LC/MS analysis; format: ADME, Microsome
[16] = test system: L02; test: Cytotoxicity activity against human L02 cells assessed as reduction in cell viability at 10 uM incubated for 24 to 48 hrs by CCK-8 assay; format: toxicity, cell-based; settings: l02, 10 µM, time 24-48 hrs
[17] = Metabolic stability in Sprague-Dawley rat plasma assessed as compound remaining measured upto 3 hrs by LC-MS/MS analysis; format: ADME, cell-free
[18] = test system: HeLa; test: Antiproliferative activity against human HeLa cells assessed as reduction in cell viability at 10 uM incubated for 24 to 48 hrs by CCK-8 assay; format: functional, cell-based; settings: time lower […], time upper 48.0 hrs
[19] = molecular target: Phosphatidylinositol 4,5-bisphosphate 3-kinase catalytic subunit alpha isoform (Homo sapiens, UniProt P42336); test: Inhibition of PI3Kalpha (unknown origin) by ADP-Glo luminescent kinase assay
[20] = Clearance in Sprague-Dawley rat at 5 mg/kg, iv measured upto 24 hrs by LC-MS analysis; format: ADME, organism-based; settings: in vivo
[21] = test system: HCT-116; test: Induction of apoptosis in human HCT-116 cells assessed as increased total apoptotic cells at 6 uM incubated for 48 hrs by Annexin V-FITC and propidium iodide staining based flow cytometry analysis (reference value: 4.22 %); format: functional
[22] = test system: HCT-116; test: Antiproliferative activity against human HCT-116 cells assessed as inhibition of colony formation at 3 to 12 uM incubated for 48 hrs by crystal violet staining based assay; format: functional, cell-based; settings: dose 3-12 µM
[23] = test system: A549; test: Antiproliferative activity against human A549 cells assessed as reduction in cell viability at 10 uM incubated for 24 to 48 hrs by CCK-8 assay; format: functional, cell-based; settings: time lower […], time upper 48.0 hrs
[24] = test system: MCF7; test: Antiproliferative activity against human MCF7 cells expressing PIK3CA with E545K mutation assessed as reduction in cell viability incubated for 24 to 48 hrs by CCK-8 assay; format: functional, cell-based
[25] = test system: SW-620; test: Antiproliferative activity against human SW-620 cells assessed as reduction in cell viability incubated for 24 to 48 hrs by CCK-8 assay; format: functional, cell-based
[26] = test system: A673; test: Antiproliferative activity against human A673 cells assessed as reduction in cell viability at 10 uM incubated for 24 to 48 hrs by CCK-8 assay; format: functional, cell-based; settings: time lower […], time upper 48.0 hrs
[27] = test system: PaTu 8988t; test: Antiproliferative activity against human PaTu 8988t cells assessed as reduction in cell viability at 10 uM incubated for 24 to 48 hrs by CCK-8 assay; format: functional, cell-based; settings: time lower […], time upper 48.0 hrs
[28] = Cytotoxicity against human MCF-10A cells assessed as reduction in cell viability incubated for 24 to 48 hrs by CCK-8 assay; format: toxicity, cell-based
[29] = test system: HCT-116; test: Induction of apoptosis in human HCT-116 cells assessed as increase in total apoptotic cells at 3 uM incubated for 48 hrs by Annexin V-FITC and propidium iodide staining based flow cytometry analysis (reference value: 4.22 %); format: functional
[30] = molecular target: Cytochrome P450 2C9 (Homo sapiens, UniProt P11712); test: Inhibition of CYP2C9 in human liver microsomes using tolbutamide as substrate pre-incubated for 30 mins followed by substrate addition and measured after 15 mins in presence of NADPH by LC/MS analysis; format: ADME, Microsome
[31] = test system: HCT-116; test: Antiproliferative activity against human HCT-116 cells assessed as inhibition of mTOR phosphorylation incubated for 48 hrs by Western blotting analysis; format: functional, cell-based; settings: dose 3-12 µM
[32] = test system: SF-126; test: Antiproliferative activity against human SF-126 cells assessed as reduction in cell viability at 10 uM incubated for 24 to 48 hrs by CCK-8 assay; format: functional, cell-based; settings: time lower […], time upper 48.0 hrs
[33] = test system: HCT-116; test: Induction of cell cycle arrest in human HCT-116 cells assessed as decrease in accumulation of cells at S phase at 3 to 12 uM incubated for 48 hrs by PI staining based flow cytometry analysis (reference value: 46.9 %); format: functional; design: scale not given: the % may be the effect or the level left; settings: dose 3-12 µM
[34] = AUC (0 to t) in Sprague-Dawley rat at 5 mg/kg, iv measured upto 24 hrs by LC-MS analysis; format: ADME, organism-based; settings: in vivo
[35] = test system: HCT-116; test: Induction of cell cycle arrest in human HCT-116 cells assessed as decrease in accumulation of cells at G2/M phase at 3 to 12 uM incubated for 48 hrs by PI staining based flow cytometry analysis (reference value: 16.5 %); format: functional; design: scale not given: the % may be the effect or the level left; settings: dose 3-12 µM
[36] = test system: TE-1; test: Antiproliferative activity against human TE-1 cells assessed as reduction in cell viability at 10 uM incubated for 24 to 48 hrs by CCK-8 assay; format: functional, cell-based; settings: time lower […], time upper 48.0 hrs
[37] = test system: HepG2; test: Antiproliferative activity against human HepG2 cells assessed as reduction in cell viability at 10 uM incubated for 24 to 48 hrs by CCK-8 assay; format: functional, cell-based; settings: time lower […], time upper 48.0 hrs

Chain of Cytochrome P450 2C9 (P11712 whole entry): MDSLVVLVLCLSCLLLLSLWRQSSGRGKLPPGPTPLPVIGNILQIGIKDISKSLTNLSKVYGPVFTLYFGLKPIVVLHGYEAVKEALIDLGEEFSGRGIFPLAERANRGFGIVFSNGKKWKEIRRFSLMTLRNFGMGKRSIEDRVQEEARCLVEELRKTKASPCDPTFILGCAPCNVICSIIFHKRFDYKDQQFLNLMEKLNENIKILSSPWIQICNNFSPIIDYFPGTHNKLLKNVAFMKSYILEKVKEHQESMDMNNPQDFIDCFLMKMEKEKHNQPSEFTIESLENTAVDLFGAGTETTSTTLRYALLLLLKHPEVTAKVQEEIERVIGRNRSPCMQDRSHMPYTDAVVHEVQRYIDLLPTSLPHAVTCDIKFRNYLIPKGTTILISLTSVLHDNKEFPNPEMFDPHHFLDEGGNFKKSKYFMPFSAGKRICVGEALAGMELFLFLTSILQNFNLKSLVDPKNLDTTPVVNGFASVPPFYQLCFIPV
Chain of Phosphatidylinositol 4,5-bisphosphate 3-kinase catalytic subunit alpha isoform (P42336 whole entry, canonical isoform): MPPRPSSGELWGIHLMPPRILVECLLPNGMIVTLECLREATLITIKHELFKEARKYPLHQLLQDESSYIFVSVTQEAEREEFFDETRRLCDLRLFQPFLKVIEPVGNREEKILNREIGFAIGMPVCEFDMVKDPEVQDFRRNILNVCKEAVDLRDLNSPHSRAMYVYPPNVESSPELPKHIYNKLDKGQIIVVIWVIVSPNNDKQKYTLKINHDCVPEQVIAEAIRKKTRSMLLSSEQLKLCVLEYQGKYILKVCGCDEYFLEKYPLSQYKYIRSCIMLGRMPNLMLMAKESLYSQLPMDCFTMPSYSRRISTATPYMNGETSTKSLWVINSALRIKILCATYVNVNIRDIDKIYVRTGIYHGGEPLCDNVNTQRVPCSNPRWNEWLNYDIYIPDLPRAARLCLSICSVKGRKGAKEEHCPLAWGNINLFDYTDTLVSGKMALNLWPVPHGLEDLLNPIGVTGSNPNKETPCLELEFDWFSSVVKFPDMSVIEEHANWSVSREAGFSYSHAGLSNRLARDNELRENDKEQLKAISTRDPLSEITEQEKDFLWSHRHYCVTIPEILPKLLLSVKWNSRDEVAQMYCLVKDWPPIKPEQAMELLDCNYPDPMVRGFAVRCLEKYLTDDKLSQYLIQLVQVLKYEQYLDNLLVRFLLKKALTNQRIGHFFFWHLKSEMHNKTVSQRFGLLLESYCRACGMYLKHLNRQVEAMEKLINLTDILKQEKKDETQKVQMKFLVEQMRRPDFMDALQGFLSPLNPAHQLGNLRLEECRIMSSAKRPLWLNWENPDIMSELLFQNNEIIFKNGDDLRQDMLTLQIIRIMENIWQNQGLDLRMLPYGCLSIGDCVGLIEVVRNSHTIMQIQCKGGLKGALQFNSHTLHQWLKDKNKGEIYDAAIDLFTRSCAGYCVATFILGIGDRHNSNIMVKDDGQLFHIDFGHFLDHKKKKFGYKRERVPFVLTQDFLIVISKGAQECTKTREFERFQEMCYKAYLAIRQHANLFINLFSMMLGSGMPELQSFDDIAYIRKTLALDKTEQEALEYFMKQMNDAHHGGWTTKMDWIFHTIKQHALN
Chain of Cytochrome P450 1A2 (P05177 whole entry): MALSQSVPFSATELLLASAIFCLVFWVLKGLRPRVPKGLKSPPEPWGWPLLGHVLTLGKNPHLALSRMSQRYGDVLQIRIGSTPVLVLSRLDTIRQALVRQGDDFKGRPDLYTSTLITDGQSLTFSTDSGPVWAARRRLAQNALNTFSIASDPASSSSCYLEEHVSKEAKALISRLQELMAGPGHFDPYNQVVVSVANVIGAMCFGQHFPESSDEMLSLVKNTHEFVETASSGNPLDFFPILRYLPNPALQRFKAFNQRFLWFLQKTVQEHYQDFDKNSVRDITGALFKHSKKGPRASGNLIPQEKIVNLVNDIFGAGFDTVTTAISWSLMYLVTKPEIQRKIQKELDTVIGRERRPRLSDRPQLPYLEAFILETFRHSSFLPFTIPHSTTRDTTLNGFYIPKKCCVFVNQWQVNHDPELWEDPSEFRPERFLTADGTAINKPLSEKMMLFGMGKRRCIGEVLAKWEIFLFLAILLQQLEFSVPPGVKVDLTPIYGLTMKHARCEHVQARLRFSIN
Chain of Cytochrome P450 3A4 (P08684 whole entry): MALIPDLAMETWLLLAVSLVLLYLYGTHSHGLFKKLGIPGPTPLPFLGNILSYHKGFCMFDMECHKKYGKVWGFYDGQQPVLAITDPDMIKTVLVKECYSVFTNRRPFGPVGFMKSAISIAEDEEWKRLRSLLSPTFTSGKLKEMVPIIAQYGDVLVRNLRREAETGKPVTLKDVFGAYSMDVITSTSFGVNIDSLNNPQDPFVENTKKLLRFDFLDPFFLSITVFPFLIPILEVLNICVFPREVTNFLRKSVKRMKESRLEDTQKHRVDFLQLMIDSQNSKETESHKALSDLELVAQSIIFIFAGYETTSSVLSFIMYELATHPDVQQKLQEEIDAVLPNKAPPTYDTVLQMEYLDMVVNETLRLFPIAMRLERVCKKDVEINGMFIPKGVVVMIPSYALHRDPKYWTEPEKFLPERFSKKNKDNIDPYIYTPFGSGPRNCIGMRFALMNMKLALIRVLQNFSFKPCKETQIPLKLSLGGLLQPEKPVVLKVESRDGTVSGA
Chain of Receptor-type tyrosine-protein kinase FLT3 (Homo sapiens) (P36888 whole entry): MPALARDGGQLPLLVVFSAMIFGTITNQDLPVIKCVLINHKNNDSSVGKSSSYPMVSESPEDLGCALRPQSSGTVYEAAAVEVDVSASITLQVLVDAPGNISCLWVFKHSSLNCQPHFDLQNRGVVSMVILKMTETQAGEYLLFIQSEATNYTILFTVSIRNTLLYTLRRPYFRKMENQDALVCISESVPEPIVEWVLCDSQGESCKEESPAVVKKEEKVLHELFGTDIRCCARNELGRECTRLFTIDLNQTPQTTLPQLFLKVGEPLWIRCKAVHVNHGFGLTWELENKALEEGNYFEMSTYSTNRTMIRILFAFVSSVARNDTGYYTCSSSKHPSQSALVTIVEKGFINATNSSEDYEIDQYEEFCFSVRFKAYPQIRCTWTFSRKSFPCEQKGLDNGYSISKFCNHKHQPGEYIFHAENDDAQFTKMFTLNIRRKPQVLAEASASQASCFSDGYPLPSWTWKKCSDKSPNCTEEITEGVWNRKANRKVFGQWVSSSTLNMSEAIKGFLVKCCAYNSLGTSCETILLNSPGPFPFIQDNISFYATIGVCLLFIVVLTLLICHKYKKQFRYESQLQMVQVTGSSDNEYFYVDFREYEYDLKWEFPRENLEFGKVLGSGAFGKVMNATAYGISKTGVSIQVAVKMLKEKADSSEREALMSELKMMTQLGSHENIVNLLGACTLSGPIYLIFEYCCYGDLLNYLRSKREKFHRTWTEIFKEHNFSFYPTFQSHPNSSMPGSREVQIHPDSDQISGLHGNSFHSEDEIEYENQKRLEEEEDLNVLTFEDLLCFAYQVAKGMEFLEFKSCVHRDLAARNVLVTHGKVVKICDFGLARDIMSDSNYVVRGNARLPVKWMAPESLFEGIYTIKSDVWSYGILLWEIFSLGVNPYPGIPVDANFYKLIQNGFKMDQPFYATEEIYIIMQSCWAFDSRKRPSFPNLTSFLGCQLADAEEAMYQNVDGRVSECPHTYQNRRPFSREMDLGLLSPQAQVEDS

## Nc1nc2cc(-c3ccc4ncc(N5C[C@@H]6OCCO[C@@H]6C5)nc4c3)ccc2o1
[1]
  inhibition: Dose-Dependent Effect
[2]
  half-life: 5.8 h
[3]
  Activity: Dose-Dependent Effect
[4]
  inhibition: Active
[5]
  Activity: Active
[6]
  half-life at 5 ug/ml: 3.61 h
[7]
  AUC(0-inf): 8.25 µg·h/mL
[8]
  IC50: > 10 µM
[9]
  inhibition: Dose-Dependent Effect
[10]
  IC50: 13.7 µM
[11]
  remaining at 1 h, 5 ug/ml: 82.3%
[12]
  Activity: Dose-Dependent Effect
[13]
  MRT inf: 1.8 h
[14]
  Activity: 27.03%
[15]
  IC50: > 10 µM
[16]
  Activity: Toxic
[17]
  Stability: Stable
[18]
  Activity: Active
[19]
  IC50: 0.0025 µM
[20]
  clearance: 0.6 L/h/kg
[21]
  Activity: 12.31%
[22]
  Activity: Active
[23]
  Activity: Active
[24]
  IC50: 3.32 µM
[25]
  IC50: 9.85 µM
[26]
  Activity: Active
[27]
  Activity: Active
[28]
  IC50: 54 µM
[29]
  Activity: 5.99%
[30]
  IC50: > 10 µM
[31]
  Activity: Dose-Dependent Effect
[32]
  Activity: Active
[33]
  Activity: 24.8%
[34]
  AUC(0-t) at 24 h: 8.23 µg·h/mL
[35]
  Activity: 19%
[36]
  Activity: Active
[37]
  Activity: Active
